Experimental findings from patent US9428460B2, “N-[4-(quinolin-4-yloxy)cyclohexyl(methyl)](hetero)arylcarboxamides as androgen receptor antagonists, production and use thereof as medicinal products” (BAYER PHARMA AKTIENGESELLSCHAFT, priority 2012, dated 2016) are described below.

For assay [1], the target named is androgen receptor mutant E709Y (Homo sapiens (Human), UniProt P10275, E710Y). Kind of assay: Transactivation assay for the androgen receptor mutant E709Y (transfected PC-3 cells). It is filed as cell-based. As to conditions: in the presence of 1×10^−10 M R1881, 24 hours. Here is the method: PC-3 cells (Kaighn et al., Invest. Urol. 17: 16-23, 1979) were plated out at a density of 10000 cells per well of a 96-well cell culture plate in RMPI 1640 medium (F1235, Biochrom AG Berlin, Germany) that contained activated charcoal-treated calf serum (FCS Serum Gold, PAA Laboratories) at a concentration of 5% (v/v). On the next day the cells were transiently transfected with the pSG5-vector (#216201 Stratagene), which contained the sequence of the androgen receptor mutant E709Y (Georget et al., Mol. Endocrinol. 20(4): 724-734, 2006), and with the MMTV-luciferase plasmid (see above, transactivation assay for the androgen receptor mutant W741C). The cells were treated with the test substances in concentrations from 1×10^−8 to 1×10^−10 M in the presence of 1×10^−10 M R1881 and were incubated overnight at 37° C. and 5% CO2. After 24 hours, 100 μl of Steady Glo Lysis and Detection reagent (E2550, Promega) was added per well and the luminescence was read in a Victor3 Luminometer (PerkinElmer) for 1 second per well. The luminescence values obtained were normalized, wherein 100% corresponded to the effect of the unstimulated control (without R1881), and 0% corresponded to the effect of the stimulated control (R1881 plus DMSO instead of test substance). The IC50 value was determined by regression analysis based on a four-parameter equation (minimum, maximum, IC50, Hill coefficient; Y=Max+(Min−Max)/(1+(X/IC50)^Hill)).

The subject of assay [2] is human uterine leiomyoma xenografts. The assay can be described thus: Growth of human xenografts from leiomyoma tissue in immunodeficient mice. It is filed as in vivo, mouse. How it is done:
The growth-inhibiting action of inhibitors of the androgen receptor was tested in a xenograft animal model with subcutaneously transplanted tissue fragments from human leiomyomas.
Human uterine leiomyoma tissue was derived from surgery, in which, based on the diagnosis, either a hysterectomy or a myomectomy was carried out. The uterine leiomyomas (UL) were then prepared free either from the removed uterus or by myomectomy in situ; in the last-mentioned method, the myomas were removed whole or by morcellation from the abdominal cavity.
The prepared myomas were then immediately put in a suitable sterile buffer (Vitron V7 Buffer (U.S. Pat. No. 5,328,821) or Viaspan organ transplant buffer) at 4° C. for further transport. Then, on a sterile bench with constant moistening, the UL tissue was cut into small blocks with 2×2×2 mm or 2×4×4 mm edge lengths, and the pieces of tissue were stored in a cell culture dish in PBS at room temperature until transplantation (M Fritsch et al. 2010, ISGE abstract & presentation).
Immunodeficient mice (ICR SCID, CB17 SCID, ICR-Hrhr SCID or SCID beige mice) were ovariectomized at the age of 6-8 weeks (OVX). At the earliest one week after OVX, pellets releasing 17β-estradiol (E2, 0.05 mg/90 d, Innovative Research of America, catalogue number NE-121) and progesterone (P, 25 mg/60 d, Innovative Research of America, catalogue number SP-131) (Innovative Research of America, Sarasota, Fla./USA) were transplanted into the neck region of the animals. Alternatively, the animals can be given replacement therapy with other implants or methods that ensure continuous release of the hormones 17β-estradiol and progesterone. […]
UL tissue in situ was as a rule characterized by an excessive synthesis and accumulation of proteins of the extracellular matrix, and by increased cell proliferation. […] If specific mechanisms of action of the test substances were known or presumed, in addition the cell proliferation and/or the proportion of the extracellular matrix were determined by histological staining. […]
On the technique in general: A xenograft is tissue or cells of one species grown in another, often human tumour cells in immunodeficient mice.

For assay [3], the system named is LNCaP cells. The assay can be described thus: Proliferation assay with LNCaP cells. To be noted: Homo sapiens, 168 h, in the presence of 1×10^−10 M R1881, seven days, AlamarBlue, read-out: IC50 LNCaP cell proliferation. The class given is cell-based. Here is the method:
LNCaP cells (Horoszewicz et al., in “Models for Prostate Cancer” (ed. G. P. Murphy), Alan R. Liss, New York 1981, p. 115-132; Horoszewicz et al., Cancer Res. 43: 1809-1818, 1983) were plated out at a density of 2000 cells per well of a 96-well cell culture plate in RMPI 1640 medium (F1275, Biochrom AG), which contained activated charcoal-treated calf serum (FCS Serum Gold, PAA Laboratories) at a concentration of 5% (v/v). Three days later the cells were treated with the test substances in concentrations from 1×10^−8 to 1×10^−10 M in the presence of 1×10^−10 M R1881. Cell proliferation was determined seven days later after incubation for 2 hours with AlamarBlue (DAL1100, Invitrogen) (Nakayama et al., J Immunol Methods, 204(2): 205-8, 1997). The fluorescence values obtained were normalized, wherein 100% corresponded to the effect of the unstimulated control (without R1881), and 0% corresponded to the effect of the stimulated control (R1881 plus DMSO instead of test substance). The IC50 value was determined by regression analysis based on a four-parameter equation (minimum, maximum, IC50, Hill coefficient; Y=Max+(Min−Max)/(1+(X/IC50)^Hill)).

Chain of androgen receptor mutant E709Y (P10275 whole entry E710Y): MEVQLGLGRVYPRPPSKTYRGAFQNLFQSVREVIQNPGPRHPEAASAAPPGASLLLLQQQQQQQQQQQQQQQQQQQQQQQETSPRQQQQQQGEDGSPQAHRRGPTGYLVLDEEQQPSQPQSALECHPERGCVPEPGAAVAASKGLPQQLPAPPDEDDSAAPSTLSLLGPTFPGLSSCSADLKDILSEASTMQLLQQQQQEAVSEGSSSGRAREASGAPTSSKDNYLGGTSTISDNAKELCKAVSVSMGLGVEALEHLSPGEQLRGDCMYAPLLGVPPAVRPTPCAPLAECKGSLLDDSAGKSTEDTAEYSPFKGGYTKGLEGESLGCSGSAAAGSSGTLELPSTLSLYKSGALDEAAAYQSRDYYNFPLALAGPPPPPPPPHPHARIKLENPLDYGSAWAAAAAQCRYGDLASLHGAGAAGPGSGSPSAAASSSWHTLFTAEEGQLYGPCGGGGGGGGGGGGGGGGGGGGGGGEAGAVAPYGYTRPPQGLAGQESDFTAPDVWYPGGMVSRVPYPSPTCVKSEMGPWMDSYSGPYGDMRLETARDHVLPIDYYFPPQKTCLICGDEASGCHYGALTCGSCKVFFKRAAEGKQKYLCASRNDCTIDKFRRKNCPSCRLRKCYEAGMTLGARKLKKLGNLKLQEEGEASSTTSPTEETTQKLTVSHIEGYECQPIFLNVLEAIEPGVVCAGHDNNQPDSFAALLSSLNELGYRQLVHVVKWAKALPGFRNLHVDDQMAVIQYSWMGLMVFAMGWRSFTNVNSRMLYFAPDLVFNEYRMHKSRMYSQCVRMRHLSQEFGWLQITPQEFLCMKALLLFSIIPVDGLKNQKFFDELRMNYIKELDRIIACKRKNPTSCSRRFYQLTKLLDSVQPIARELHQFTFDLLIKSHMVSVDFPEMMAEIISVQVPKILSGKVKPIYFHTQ

In the case of `N#Cc1cccc2c(O[C@H]3CC[C@H](NC(=O)c4cccc(F)c4)CC3)ccnc12` [Example 23, N-{trans-4-[(8-cyanoquinolin-4-yl)oxy]cyclohexyl}-3-fluorobenzamide], the IC50 in assay [1] is 9 nM; in assay [3] it was 28 nM. For the same compound, the “inhibition of the growth of uterine leiomyoma xenografts” value in assay [2] (70 mg/kg/d, in 3 out of 4 independent experiments with tissue from different donors) is recorded as “significant inhibition”. The “average inhibition of the normalized xenograft growth over the transplantation weight on day 0” value in assay [2] (dose of 25 mg/kg/d) is on record as −24%; in assay [2] (dose of 70 mg/kg/d), −59%.
